{"source": "patent US20140039047A1", "about": "“METHODS FOR REGULATING SIRTUIN GENE EXPRESSION” (priority 2011, published 2014)", "assay_in_all_cases": "Quantitative PCR of sirtuin gene expression in canine adipocytes treated with Equol", "format_in_all_cases": "cell-based", "details_in_all_cases": "24 hours, terminally differentiated canine adipocytes, normalized to cyclophilin A (PPIA), n=3", "key": {"SIRT1": {"system": "SIRT1", "protocol": "(§1) Treatment: Terminally differentiated canine adipocytes were exposed to 200, 25, and 0 uM Equol for 24 hours. Cells were collected for RNA isolation.\n(§2) RNA Isolation: Treatment cell samples were vortexed and homogenized using a Quiashredder (Qiagen, Valencia, Calif.) column according to manufacturer's directions. The homogenized lysate was collected and 1 equal volume of 64% ethanol was added to it. This mixture was then applied to an RNAqueous™ filter cartridge, (Ambion Inc., Austin, Tex.) 700 uL at a time, and centrifuged for one minute at 10,000 rpm. The cartridge was washed using 700 uL wash solution #1 and 500 uL wash solution #⅔ with centrifugation at 10,000 rpm for one minute for each wash. The filter cartridge was dried by centrifugation (10,000 rpm) for one minute. RNA was eluted three times by centrifugation (as above) using 30 uL aliquots of 70-80° C. elution solution. The resulting RNA was DNAse-treated and quantitated in a Beckman DU 640B spectrophotometer (Beckman Coulter, Inc., Brea, Calif.) at 260 nm. Additionally, quantity and quality were assessed using a bioanalyzer (Agilent, Santa Clara, Calif.) according to manufacturer's directions.\n(§3) Quantitative PCR: All samples were run singularly against each primer/probe set to determine what standard curve(s) should be used. Standard curves were generated using serial dilutions of RNA from experimental samples with the lowest CT (cycle threshold) for a given target. 1-2 samples were re-reverse transcribed and a 1:5 serial dilution were used as the standard curve for a given target. Targets run included sirtuin −1, −2, −3 and −6. Values were normalized to cyclophilin A (PPIA) levels as determined by quantitative PCR. Inductions were calculated from each of the lowest sample's normalized value. Each set was run with n=3."}, "SIRT2": {"system": "SIRT2", "protocol": "as §1, §2, §3"}, "SIRT3": {"system": "SIRT3", "protocol": "as §1, §2, §3"}, "SIRT6": {"system": "SIRT6", "protocol": "as §1, §2, §3"}}, "data": [{"smiles": "Oc1ccc([C@H]2COc3cc(O)ccc3C2)cc1", "note": "[Equol]", "values": [{"measurement": "Expression of SIRT1 gene (relative expression)", "setting": "SIRT1; 25 uM Equol", "value": 1.17}, {"measurement": "Expression of SIRT1 gene (relative expression)", "setting": "SIRT1; 200 uM Equol", "value": 1.80}, {"measurement": "Expression of SIRT2 gene (relative expression)", "setting": "SIRT2; 25 uM Equol", "value": 1.22}, {"measurement": "Expression of SIRT2 gene (relative expression)", "setting": "SIRT2; 200 uM Equol", "value": 2.37}, {"measurement": "Expression of SIRT3 gene (relative expression)", "setting": "SIRT3; 25 uM Equol", "value": 10.86}, {"measurement": "Expression of SIRT3 gene (relative expression)", "setting": "SIRT3; 200 uM Equol", "value": 17.21}, {"measurement": "Expression of SIRT6 gene (relative expression)", "setting": "SIRT6; 25 uM Equol", "value": 1.10}, {"measurement": "Expression of SIRT6 gene (relative expression)", "setting": "SIRT6; 200 uM Equol", "value": 1.23}]}]}
